# Test results from patent publication US11999746B2, “Compounds” (GlaxoSmithKline Intellectual Property Development Limited, priority 2014, dated 2024).
# Molecular target: T1, Lp-PLA2 in human plasma (Homo sapiens, UniProt Q13093)
# T1 construct: from tissue; host or cells: pooled human plasma
# T1 sequence (Q13093 22-441): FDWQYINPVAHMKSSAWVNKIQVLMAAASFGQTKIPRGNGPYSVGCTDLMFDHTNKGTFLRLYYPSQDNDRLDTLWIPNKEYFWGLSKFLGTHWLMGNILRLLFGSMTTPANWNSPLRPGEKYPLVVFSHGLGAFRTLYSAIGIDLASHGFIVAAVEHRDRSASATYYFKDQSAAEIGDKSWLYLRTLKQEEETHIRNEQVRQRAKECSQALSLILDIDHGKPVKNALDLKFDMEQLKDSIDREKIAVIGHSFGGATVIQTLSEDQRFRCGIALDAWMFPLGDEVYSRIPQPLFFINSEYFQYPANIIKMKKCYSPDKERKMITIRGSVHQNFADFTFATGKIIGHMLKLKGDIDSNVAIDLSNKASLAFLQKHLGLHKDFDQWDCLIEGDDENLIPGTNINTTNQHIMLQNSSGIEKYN
# Experiment: (3a) Lp-PLA2 human plasma Thio-PAF assay
# Format: biochemical
# Conditions: (3a) Thio-PAF assay, pooled human plasma; Examples 1-265 and 413-430 were tested here; read-out: pIC50 in the Lp-PLA2 human plasma assay (converted)
# Source text: (3) Lipoprotein-Associated Phospholipase A2 (Lp-PLA2) Human Plasma Assay
# The human plasma assay utilizes a thioester analog of PAF (phosphatidylcholine), where hydrolysis yields to the formation of a phospholipid containing a free thiol group. The amount of thiol is quantitated continuously by reacting with CPM (7-diethylamino-3-(4′-maleimidylphenyl)-4-methylcoumarin), a maleimide which increases in fluoresence after Michael addition of thiols. This assay may detect the activity of Lp-PLA2 in human plasma, as determined by specific inhibition by Lp-PLA2 inhibitors.
# The thio-PAF assay was run as a quenched 15 μL assay. Compounds source plate was prepared by making 1:3 (by volume) serial dilution of the compounds into pure DMSO on 384-well microplate. 0.01 μL of compounds on compound source plate were transferred to 384 well Greiner 784076 (black) low-volume plates by ECHO liquid dispenser. 8 μL pooled human plasma, which was previously aliquoted and frozen, was added. Plates were centrifuged for 10 sec at 500 rpm. After 30 minutes preincubation, 2 μL of substrate solution comprising 2.5 mM 2-thio-PAF [from ethanol stock], 32 μM CPM [from a DMSO stock] and 3.2 mM NEM (N-ethylmaleimide) [made fresh daily in DMSO] in assay buffer of 50 mM HEPES, pH 7.4, 150 mM NaCl, 1 mM CHAPS was added to 384 well Greiner 784076 (black) low-volume plates by BRAVO liquid handling station. After 2 mins, reaction was quenched with 5 μL of 5% aqueous trifluoroacetic acid (TFA). Plates were covered to protect from light and incubated for 40 min at room temperature. Plates were read at ex: 380/em: 485 using Envision microplate reader. PIC50 data, curve and QC analysis were conducted by using XLFit module in Excel.
row,Structure (SMILES),IC50 [µM]
1,"Cn1cc(Oc2c(F)cc(COc3cc4n(c(=O)n3)CC3OCCN43)cc2F)cn1 (single isomer, unassigned) [Example E189, 6-((3,5-difluoro-4-((1-methyl-1H-pyrazol-4-yl)oxy)benzyl)oxy)-10,10a-dihydro-2H-oxazolo[3′,2′:3,4]imidazo[1,2-c]pyrimidin-8(3H)-one]",≤ 10
2,"O=c1nc(OCc2ccc(F)cc2F)cc2n1C[C@H]1COCN21 [Example E168, (S)-6-((2,4-difluorobenzyl)oxy)-10,10a-dihydro-1H-oxazolo[3′,4′:3,4]imidazo[1,2-c] pyrimidin-8(3H)-one]",≤ 10
3,"O=c1nc(OCc2cccc(F)c2F)cc2n1C[C@H]1COCN21 [Example E169, (S)-6-((2,3-difluorobenzyl)oxy)-10,10a-dihydro-1H-oxazolo[3′,4′:3,4]imidazo[1,2-c]pyrimidin-8(3H)-one]",≤ 10
4,"O=c1nc(OCc2cccc(F)c2)cc2n1C[C@@H]1COCN21 [Example E171, (R)-6-((3-fluorobenzyl)oxy)-10,10a-dihydro-1H-oxazolo[3′,4′:3,4]imidazo[1,2-c]pyrimidin-8(3H)-one]",≤ 10
5,"O=c1nc(OCc2cccc(F)c2F)cc2n1C[C@@H]1COCN21 [Example E172, (R)-6-((2,3-difluorobenzyl)oxy)-10,10a-dihydro-1H-oxazolo[3′,4′:3,4]imidazo[1,2-c] pyrimidin-8(3H)-one]",≤ 10
6,"O=c1nc(OCc2cc(F)c(F)cc2F)cc2n1C[C@H]1COCN21 [Example E173, (S)-6-((2,4,5-trifluorobenzyl)oxy)-10,10a-dihydro-1H-oxazolo[3′,4′:3,4]imidazo[1,2-c] pyrimidin-8(3H)-one]",≤ 10
7,"O=c1nc(OCc2ccc(F)cc2F)cc2n1C[C@@H]1COCN21 [Example E174, (R)-6-((2,4-difluorobenzyl)oxy)-10,10a-dihydro-1H-oxazolo[3′,4′:3,4]imidazo[1,2-c]pyrimidin-8(3H)-one]",≤ 10
8,"O=c1nc(OCc2cc(F)c(F)cc2F)cc2n1C[C@@H]1COCN21 [Example E175, (R)-6-((2,4,5-trifluorobenzyl)oxy)-10,10a-dihydro-1H-oxazolo[3′,4′:3,4]imidazo[1,2-c] pyrimidin-8(3H)-one]",≤ 10
9,"O=c1nc(OCc2cc(F)cc(F)c2)cc2n1C[C@@H]1COCN21 [Example E176, (R)-6-((3,5-difluorobenzyl)oxy)-10,10a-dihydro-1H-oxazolo[3′,4′:3,4]imidazo[1,2-c] pyrimidin-8(3H)-one]",≤ 10
10,"O=c1nc(OCc2ccc(F)cc2F)cc2n1C[C@H]1CCOCN21 [Example E177, (R)-3-((2,4-difluorobenzyl)oxy)-8,9,9a,10-tetrahydropyrimido[6′,1′:2,3]imidazo[1,5-c][1,3] oxazin-1(6H)-one]",≤ 10
11,"O=c1nc(OCc2ccc(F)cc2F)cc2n1C[C@@H]1CCOCN21 [Example E180, (S)-3-((2,4-difluorobenzyl)oxy)-8,9,9a,10-tetrahydropyrimido[6′,1′:2,3]imidazo[1,5-c][1,3]oxazin-1(6H)-one]",≤ 10
12,"O=c1nc(OCc2cc(F)c(F)cc2F)cc2n1C[C@@H]1CCOCN21 [Example E181, (S)-3-((2,4,5-trifluorobenzyl)oxy)-8,9,9a,10-tetrahydropyrimido[6′,1′:2,3]imidazo[1,5-c][1,3]oxazin-1(6H)-one]",≤ 10
13,"O=c1nc(OCc2cc(F)cc(F)c2)cc2n1C[C@@H]1CCOCN21 [Example E182, (S)-3-((3,5-difluorobenzyl)oxy)-8,9,9a,10-tetrahydropyrimido[6′,1′:2,3]imidazo[1,5-c][1,3] oxazin-1(6H)-one]",≤ 10
14,"O=c1nc(OCc2cccc(F)c2F)cc2n1C[C@@H]1CCOCN21 [Example E183, (S)-3-((2,3-difluorobenzyl)oxy)-8,9,9a,10-tetrahydropyrimido[6′,1′:2,3]imidazo[1,5-c][1,3] oxazin-1(6H)-one]",≤ 10
15,"O=c1nc(OCc2cc(F)cc(F)c2)cc2n1CC1OCCN21 (stereo not shown) [Example E184, 6-((3,5-Difluorobenzyl)oxy)-10,10a-dihydro-2H-oxazolo[3′,2′:3,4]imidazo[1,2-c]pyrimidin-8 (3H)-one]",≤ 10
16,"O=c1nc(OCCc2cccc(F)c2)cc2n1C[C@H]1COCN21 [Example E186, (S)-6-(3-fluorophenethoxy)-10,10a-dihydro-1H-oxazolo[3′,4′:3,4]imidazo[1,2-c]pyrimidin-8(3H)-one]",≤ 10
17,"O=c1nc(OCc2cccc(F)c2F)cc2n1CC1OCCN21 (stereo not shown) [Example E187, 6-((2,3-Difluorobenzyl)oxy)-10,10a-dihydro-2H-oxazolo[3′,2′:3,4]imidazo[1,2-c]pyrimidin-8(3H)-one]",≤ 10
18,"O=c1nc(OCc2cc(F)c(F)c(F)c2)cc2n1CC1OCCN21 (stereo not shown) [Example E188, 6-((3,4,5-Trifluorobenzyl)oxy)-10,10a-dihydro-2H-oxazolo[3′,2′:3,4]imidazo[1,2-c]pyrimidin-8(3H)-one]",≤ 10
19,"N#Cc1ccc(CCOc2cc3n(c(=O)n2)C[C@H]2COCN32)cc1 [Example E191, (S)-4-(2-((8-oxo-3,8,10,10a-tetrahydro-1H-oxazolo[3′,4′:3,4]imidazo[1,2-c]pyrimidin-6-yl)oxy)ethyl)benzonitrile]",≤ 10
20,"O=c1nc(OCc2cc(F)c(OC3(CCF)CC3)c(F)c2)cc2n1C[C@@H]1COCN21 [Example E193, (R)-6-((3,5-difluoro-4-(1-(2-fluoroethyl)cyclopropoxy)benzyl)oxy)-10,10a-dihydro-1H-oxazolo[3′,4′:3,4]imidazo[1,2-c]pyrimidin-8(3H)-one]",≤ 10
21,"O=c1nc(OCc2cc(F)c(OC3(CCF)CC3)c(F)c2)cc2n1C[C@H]1CCOCN21 [Example E195, (R)-3-((3,5-difluoro-4-(1-(2-fluoroethyl)cyclopropoxy)benzyl)oxy)-8,9,9a,10-tetrahydropyrimido[6′,1′:2,3]imidazo[1,5-c][1,3]oxazin-1(6H)-one]",≤ 10
22,"O=c1nc(OCc2cc(F)c(OC3(CCF)CC3)c(F)c2)cc2n1C[C@H]1COCN21 [Example E197, (S)-6-((3,5-difluoro-4-(1-(2-fluoroethyl)cyclopropoxy)benzyl)oxy)-10,10a-dihydro-1H-oxazolo[3′,4′:3,4]imidazo[1,2-c]pyrimidin-8(3H)-one]",≤ 10
23,"Cn1cc(Oc2c(F)cc(COc3cc4n(c(=O)n3)CC3OCCCN43)cc2F)cn1 (stereo not shown) [Example E200, 7-((3,5-Difluoro-4-((1-methyl-1H-pyrazol-4-yl)oxy)benzyl)oxy)-3,4,11,11a tetrahydropyrimido[6′,1′:2,3]imidazo[5,1-b][1,3]oxazin-9(2H)-one]",≤ 10
24,"O=c1nc(OCc2ccc(CN3CCCC(F)(F)C3)c(F)c2)cc2n1C[C@@H]1CCCCN21 [Example E205, (S)-3-((4-((3,3-difluoropiperidin-1-yl)methyl)-3-fluorobenzyl)oxy)-6,7,8,9,9a,10-hexahydro-1H-pyrido[1′,2′:3,4]imidazo[1,2-c]pyrimidin-1-one]",≤ 10
25,"O=c1nc(OCc2cc(F)c(OC3CCC(F)(F)CC3)c(F)c2)cc2n1C[C@@H]1CCCN21 [Example E206, (S)-3-((4-((4,4-difluorocyclohexyl)oxy)-3,5-difluorobenzyl)oxy)-7,8,8a,9-tetrahydropyrrolo[1′,2′:3,4]imidazo[1,2-c]pyrimidin-1(6H)-one]",≤ 10
